From US6469028B1, “Synthesis and use of retinoid compounds having negative hormone and/or anatgonist activities” (Allergan, Inc., priority 1995, dated 2002)

What was measured:
[1] = molecular target: T1, RXRγ (Mus musculus, UniProt P28705); experiment: Holoreceptor transactivation assay; format: cell-based; settings: relative to all trans retinoic acid; read-out: Transactivation Assay Efficacy (% of RA activity) RXRγ
T1 construct: expressed in transfected cells; host or cells: CV1 cells
T1 sequence (P28705 1-463): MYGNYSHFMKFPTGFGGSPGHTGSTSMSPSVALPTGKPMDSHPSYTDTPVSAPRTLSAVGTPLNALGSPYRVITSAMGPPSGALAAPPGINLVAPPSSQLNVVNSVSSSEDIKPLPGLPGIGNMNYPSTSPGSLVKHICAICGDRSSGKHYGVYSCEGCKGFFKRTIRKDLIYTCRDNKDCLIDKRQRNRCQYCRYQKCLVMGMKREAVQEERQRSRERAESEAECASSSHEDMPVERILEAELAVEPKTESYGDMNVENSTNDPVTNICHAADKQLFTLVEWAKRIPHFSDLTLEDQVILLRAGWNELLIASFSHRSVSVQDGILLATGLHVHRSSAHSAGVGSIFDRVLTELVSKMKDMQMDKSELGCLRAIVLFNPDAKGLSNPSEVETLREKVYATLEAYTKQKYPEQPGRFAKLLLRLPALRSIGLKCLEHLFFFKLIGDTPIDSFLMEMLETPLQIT
Source text: (§1) A holoreceptor transactivation assay and a ligand binding assay which measure the antagonist/agonist like activity of the compounds of the invention, or their ability to bind to the several retinoid receptor subtypes, respectively, are described in published PCT Application No. WO93/11755 (particularly on pages 30-33 and 37-41) published on Jun. 24, 1993, the specification of which is also incorporated herein by reference. A description of the holoreceptor transactivation assay is also provided below.
(§2) CV1 cells (5,000 cells/well) were transfected with an RAR reporter plasmid MTV-TREp-LUC (50 ng) along with one of the RAR expression vectors (10 ng) in an automated 96-well format by the calcium phosphate procedure of Heyman et al. Cell 68: 397-406. For RXR-α and RXR-γ transactivation assays, an RXR-responsive reporter plasmid CRBPII-tk-LUC (50 ng) along with the appropriate RXR expression vectors (10 ng) was used substantially as described by Heyman et al. above, and Allegretto et al. J. Biol. Chem. 268: 26625-26633. For RXR-β transactivation assays, an RXR-responsive reporter plasmid CPRE-tk-LUC ([…]) along with RXR-β expression vector ([…]) was used as described in above. These reporters contain DRI elements from human CRBPII and certain DRI elements from promotor, respectively (see Mangelsdorf et al. The Retinoids: Biology Chemistry and Medicine, pp. 319-349, Raven Press Ltd., New York and Heyman et al., cited above). A β-galactosidase (50 ng) expression vector was used as an internal control in the transfections to normalize for variations in transfection efficiency. The cells were transfected in triplicate for 6 hours, followed by incubation with retinoids for 36 hours, and the extracts were assayed for luciferase and […] activities. The detailed experimental procedure for holoreceptor transactivations has been described in Heyman et al. above, and Allegretto et al. cited above. The results obtained in this assay are expressed in EC50 numbers, as they are also in the chimeric receptor transactivation assay. The Heyman et al. Cell 68: 397-406, Allegretto et al. J. Biol. Chem. 268: 26625-26633, and Mangelsdorf et al. The Retinoids: Biology, Chemistry, and Medicine, pp. 319-349, Raven Press Ltd., New York, are expressly incorporated herein by reference. The results of ligand binding assay are expressed in Kd numbers. (See Cheng et al. Biochemical Pharmacology 22: 3099-3108, expressly incorporated herein by reference.)

[2] = molecular target: T2, RXRα (Homo sapiens, UniProt P19793); experiment: Holoreceptor transactivation assay; format: cell-based; settings: relative to all trans retinoic acid; read-out: Transactivation Assay Efficacy (% of RA activity) RXRα
T2 construct: expressed in transfected cells; host or cells: CV1 cells
T2 sequence (P19793 1-462): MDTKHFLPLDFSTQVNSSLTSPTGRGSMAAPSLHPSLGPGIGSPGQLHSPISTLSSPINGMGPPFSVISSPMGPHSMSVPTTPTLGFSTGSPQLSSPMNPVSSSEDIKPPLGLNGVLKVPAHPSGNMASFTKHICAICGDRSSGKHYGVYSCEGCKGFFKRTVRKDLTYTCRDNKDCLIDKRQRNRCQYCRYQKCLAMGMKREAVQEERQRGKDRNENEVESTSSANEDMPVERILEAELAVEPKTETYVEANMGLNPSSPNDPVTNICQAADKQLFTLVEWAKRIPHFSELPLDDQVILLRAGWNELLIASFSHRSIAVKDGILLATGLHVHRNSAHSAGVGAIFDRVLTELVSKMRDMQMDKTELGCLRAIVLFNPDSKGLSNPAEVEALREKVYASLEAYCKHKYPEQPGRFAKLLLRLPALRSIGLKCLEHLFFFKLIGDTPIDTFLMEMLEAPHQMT
Source text: as §1, §2

Row | SMILES | Emax [1] [%] | Emax [2] [%]
1 | Cc1ccc(C2=CCC(C)(C)c3ccc(C#Cc4ccc(C(=O)O)cc4)cc32)cn1 [Compound 18, 4-[(5,6-Dihydro-5,5-dimethyl-8-(2-methyl-5-pyridyl)-2-naphthalenyl)ethynyl]benzoic acid] | 1 | 2
2 | CC1(C)CC=C(c2ccccn2)c2cc(C#Cc3ccc(C(=O)O)cc3)ccc21 [Compound 19, 4-[(5,6-Dihydro-5,5-dimethyl-8-(2-pyridyl)-2-naphthalenyl)ethynyl]benzoic acid] | 4 | 0
3 | Cc1cccc(C2=CCC(C)(C)c3ccc(C#Cc4ccc(C(=O)O)cc4)cc32)c1 [Compound 20, 4-[(5,6-Dihydro-5,5-dimethyl-8-(3-methylphenyl)-2-naphthalenyl)ethynyl]benzoic acid] | 3 | 4
4 | CCc1ccc(C2=CCC(C)(C)c3ccc(C#Cc4ccc(C(=O)O)cc4)cc32)cc1 [Compound 21, 4-[(5,6-Dihydro-5,5-dimethyl-8-(4-ethylphenyl)-2-naphthalenyl)ethynyl]benzoic acid] | 3 | 3
5 | COc1ccc(C2=CCC(C)(C)c3ccc(C#Cc4ccc(C(=O)O)cc4)cc32)cc1 [Compound 22, 4-[(5,6-Dihydro-5,5-dimethyl-8-(4-methoxyphenyl)-2-naphthalenyl)ethynyl]benzoic acid] | 2 | 1
6 | CC1(C)CC=C(c2ccc(C(F)(F)F)cc2)c2cc(C#Cc3ccc(C(=O)O)cc3)ccc21 [Compound 23, 4-[(5,6-Dihydro-5,5-dimethyl-8-(4-trifluoromethylphenyl)-2-naphthalenyl)ethynyl]benzoic acid] | 4 | 1
7 | Cc1cc(C)cc(C2=CCC(C)(C)c3ccc(C#Cc4ccc(C(=O)O)cc4)cc32)c1 [Compound 24, 4-[(5 6-Dihydro-5,5-dimethyl-8-(3,5-dimethylphenyl)-2-naphthalenyl)ethynyl]benzoic acid] | 3 | 1
8 | CC1(C)CC=C(c2ccc(Cl)cc2)c2cc(C#Cc3ccc(C(=O)O)cc3)ccc21 [Compound 25, 4-[(5,6-Dihydro-5,5-dimethyl-8-(4-chlorophenyl)-2-naphthalenyl)ethynyl]benzoic acid] | 3 | 5
9 | CC1(C)CC=C(c2cccnc2)c2cc(C#Cc3ccc(C(=O)O)cc3)ccc21 [Compound 26, 4-[(5,6-Dihydro-5,5-dimethyl-8-(3-pyridyl)-2-naphthalenyl)ethynyl]benzoic acid] | 3 | 2
10 | Cc1ccccc1C1=CCC(C)(C)c2ccc(C#Cc3ccc(C(=O)O)cc3)cc21 [Compound 27, 4-[(5,6-Dihydro-5,5-dimethyl-8-(2-methylphenyl)-2-naphthalenyl)ethynyl]benzoic acid] | 4 | 2
11 | CC1(C)CC=C(c2cccc(O)c2)c2cc(C#Cc3ccc(C(=O)O)cc3)ccc21 [Compound 28, 4-[(5,6-Dihydro5,5-dimethyl-8-(3-hydroxyphenyl)-2-naphthalenyl)ethynyl]benzoic acid] | 3 | 2
12 | CC1(C)CC=C(c2ccc(O)cc2)c2cc(C#Cc3ccc(C(=O)O)cc3)ccc21 [Compound 29, 4-[(5,6-Dihydro-5,5-dimethyl-8-(4-hydroxyphenyl)-2-naphthalenyl)ethynyl]benzoic acid] | 2 | 0
13 | Cc1cnc(C2=CCC(C)(C)c3ccc(C#Cc4ccc(C(=O)O)cc4)cc32)s1 [Compound 30, 4-[(5,6-Dihydro-5,5-dimethyl-8-(5-methylthiazol-2-yl)-2-naphthalenyl)ethynyl]benzoic acid] | 3 | 0
14 | Cc1csc(C2=CCC(C)(C)c3ccc(C#Cc4ccc(C(=O)O)cc4)cc32)n1 [Compound 31, 4-[(5,6-Dihydro-5,5-dimethyl-8-(4-methylthiazol-2-yl)-2-naphthalenyl)ethynyl]benzoic acid] | 6 | 1
15 | Cc1ccc(C2=CCC(C)(C)c3ccc(C#Cc4ccc(C(=O)O)cc4)cc32)cc1 [Compound 60, 4-[(5,6-dihydro-5,5-dimethyl-8-(4-methylphenyl)-2-naphthalenyl)ethynyl]benzoic acid] | 3 | 3

Further lines, results first:

Row | Emax [1] [%] | Emax [2] [%] | SMILES
16 | 2 | 1 | Cc1nc(C2=CCC(C)(C)c3ccc(C#Cc4ccc(C(=O)O)cc4)cc32)sc1C [Compound 32]
17 | 3 | 1 | Cc1ccc(C2=CCC(C)(C)c3ccc(C#Cc4ccc(C(=O)O)cc4)cc32)s1 [Compound 34, 4-[(5,6-Dihydro-5,5-dimethyl-8-(5-methyl-2-thienyl)-2-naphthalenyl)ethynyl]benzoic acid]
18 | 2 | 1 | Cc1ccc(C2=CCC(C)(C)c3ccc(C(=O)Nc4ccc(C(=O)O)cc4)cc32)cc1 [Compound 36, 4-[[(5,6-Dihydro-5,5-dimethyl-8-(4-methylphenyl)-2-naphthalenyl)carbonyl]amino]-benzoic acid]
19 | 1 | 2 | Cc1ccc(C2=CCC(C)(C)c3ccc(C(=O)Oc4ccc(C(=O)O)cc4)cc32)cc1 [Compound 39, 4-[[(5,6-Dihydro-5,5-dimethyl-8-(4-methylphenyl)-2-naphthalenyl)carbonyl]oxy]-benzoic acid]
20 | 3 | 1 | Cc1ccc(C2=CCC(C)(C)c3ccc(C(=O)Nc4ccc(C(=O)O)c(F)c4)cc32)cc1 [Compound 41, 2-Fluoro-4-[[(5,6-dihydro-5,5-dimethyl-8-(4methylphenyl)-2-naphthalenyl)carbonyl]amino]-benzoic acid]
21 | 0 | 3 | Cc1ccc(C2=CCC(C)(C)c3ccc(/C=C/c4ccc(C(=O)O)cc4)cc32)cc1 [Compound 45]
22 | 4 | 2 | Cc1ccc(C2=CCC(C)(C)c3ccc(N=Nc4ccc(C(=O)O)cc4)cc32)cc1 [Compound 46b, 4-[(5,6-dihydro-5,5-dimethyl-8-(4-methylphenyl)-2-naphthalenyl)azo]-benzoic acid]
23 | 10 | 0 | CC(/C=C/C=C(\C)c1ccc2c(c1)C(c1ccc(C)cc1)=CCC2(C)C)=C\C(=O)O [Compound 52, (E,E,E)-3-methyl-7-(5,6-dihydro-5,5-dimethyl-8-(4-methylphenyl)-2-naphthalenyl)-2,4,6-octatrienoic acid]
24 | 3 | 1 | CC(C)(C)c1ccc(C2=CCC(C)(C)c3ccc(C#Cc4ccc(C(=O)O)cc4)cc32)cc1 [Compound 61, 4-[(5,6-Dihydro-5,5-dimethyl-8-(4-(1,1-dimethylethyl)phenyl)-2-naphthalenyl)ethynyl]benzoic acid]
25 | 1 | 1 | Cc1ccc(C2=CCC(C)(C)c3ccc(C(=S)Nc4ccc(C(=O)O)c(F)c4)cc32)cc1 [Compound 63, 2-fluoro-4-[[(5,6-dihydro-5,5-dimethyl-8-(4-methylphenyl)-2-naphthalenyl)thiocarbonyl]amino]-benzoic acid]
